Consider one molecule from US20250376689A1, “OLIGONUCLEOTIDES HAVING 6-THIO-2'-DEOXYGUANOSINE RESIDUES AND USES THEREOF” (City of Hope, priority 2021, published 2025).

One data set relates to activated T cells. Kind of data set: Viability of CD3/CD28-activated human T cells (flow cytometry). The format is cell-based. The note with it: human T cells activated with CD3/CD28 beads and IL-2. As for the experimental part: (§1) PMBCs from 3 healthy donors were seeded at a density of 10^7/mL and treated with CpG alone, 6tdG alone, combination of CpG and 6tdG, CpG(6tdG)6-p, CpG(6tdG)5G for 2 days. Cell apoptosis was measured using flow cytometry after staining for Annexin V and 7AAD. Representative results obtained from 3 independent experiments; means±SEM (n=3). (FIG. 4B) Human T cells isolated from 3 healthy donor PBMCs using negative selection were activated with CD3/CD28 beads in the presence of 20 ng/mL human IL-2 to induce proliferation. After activation, T cells were incubated in the presence of CpG alone, 6tdG alone, combination of CpG and 6tdG, CpG(6tdG)6-p or CpG(6tdG)5G for the indicated times before subject to viability analysis in flow cytometry. (FIG. 4C) Activated and proliferating T cells, but not naïve/resting T cells, have high levels of telomerase activity. The telomerase activity was assayed using TRAPeze kit (EMD Millipore), a telomerase repeated amplification protocol, and PCR products were qualitatively analyzed in a PAGE gel.

In data set [1] the test system is telomerase-negative normal cells. The following applies: cited from earlier work.
For data set [2], the system named is TBK1 signaling downstream from STING. Kind of data set: Western blot of activated and total TBK1 in DCs co-cultured with pretreated RM9 cells. The format is cell-based, mouse. As for the experimental part:
FIG. 8A: RM9 prostate cancer cells were treated with a combination of 5 μM 6tdG and 1 μM CpG, 1 μM CpG(6tdG)6-p or PBS overnight, washed and incubated for the additional 3 days in fresh media. The dying cancer cells were then harvested and co-cultured for 18 h with freshly isolated, mouse primary splenic DC at a ratio of 1:10. The percentages of activated DCs (CD11c+MHC II+/CD80+ or CD86+) were analyzed by flow cytometry. FIG. 8B: Bone-marrow derived dendritic cells (BMDCs) were co-cultured with cancer cells in the presence of CpG alone, 6tdG alone, combination of CpG and 6tdG, or CpG(6tdG)6-p for 3 days. The expression of IFN-β mRNA was analyzed by real-time qPCR. Shown are results from three independent experiments; means±SEM (n=3); ****P<0.0001; *P<0.05 compared to the untreated group. FIG. 8C: TBK1 signaling downstream from STING is activated in primary mouse DCs co-cultured with RM9 cells pretreated using 6tdG alone, in combination with CpG or by CpG-(6tdG)6-p oligomer. The protein content of dendritic cells was analyzed using western blot to evaluate levels of activated and total TBK1. The protein levels were normalized to beta-actin and quantified densitometrically.

The test system of data set [3] is resting human lymphocytes. Kind of data set: Apoptosis/viability of resting human PBMCs (Annexin V/7AAD flow cytometry). The data set is classed as cell-based. The note with it: PBMCs from 3 healthy donors, treated 2 days. The procedure:
as §1

On to `Nc1nc2c(ncn2[C@H]2C[C@H](O)[C@@H](CO)O2)c(=S)[nH]1` [6tdG, 6-thio-2′-deoxyguanosine], for which the “cytotoxicity to activated T cells” value with activated T cells is reported as “cytotoxic to activated T cells”. Moreover, the “cytotoxic effects on telomerase-negative normal cells” value in data set [1] is “minimal cytotoxic effects”. In addition, the “TBK1 signaling in primary mouse DCs” value in data set [2] is given as “activated”. The “viability of resting human lymphocytes” value in data set [3] is reported as “Neither 6tdG nor CpG-6tdG oligomers affect viability”.
